From US20210145000A1, “WEED CONTROL FROM APPLICATIONS OF PYRIDINE CARBOXYLIC ACID HERBICIDES AND ACETYL CoA CARBOXYLASE (ACCase) INHIBITORS” (Dow AgroSciences LLC, priority 2018, published 2021)
“And” between values parts separate entries of the source, which are not always exact repeats. Identical values can stand only once.

How the values were obtained:
Test in all cases: Postemergence herbicidal activity, greenhouse, visual injury
Type in all cases: in vivo
[1] = tested on: wild pansy (Viola tricolor, VIOTR); settings: post-emergence, read-out: Effect (% visual injury) Obs
Description: (§1) The plants were grown for 7-36 days (d) in a greenhouse with an approximate 14-hour (h) photoperiod which was maintained at about 23° C. during the day and 22° C. during the night. Nutrients and water were added on a regular basis and supplemental lighting was provided with overhead metal halide 1000-Watt lamps as necessary. The plants were employed for testing when they reached the second or third true leaf stage.
(§2) Spray solutions of the experimental compound mixtures were prepared by adding the stock solutions to the appropriate amount of dilution solution to form a 12 mL spray solution in two-way combinations. […] Control plants were sprayed in the same manner with the solvent blank. Application rates for component (a) are in g ae/ha, and application rates for component (b) are in g ai/ha.
(§3) The treated plants and control plants were placed in a greenhouse as described above and watered by sub-irrigation to prevent wash-off of the test compounds. After 20-22 d, the condition of the test plants as compared with that of the control plants was determined visually and scored on a scale of 0 to 100 percent where 0 corresponds to no injury and 100 corresponds to complete kill. […] The Colby method was used to determine the herbicidal effects expected from the mixtures.

[2] = tested on: soybean (Glycine max, GLXMA); settings: post-emergence, read-out: Effect (% visual injury) Obs
Description: as §1, §2, §3

[3] = tested on: grain sorghum (Sorghum vulgare, SORVU); settings: post-emergence, read-out: Effect (% visual injury) Obs
Description: as §1, §2, §3

[4] = tested on: pigweed (Amaranthus retroflexus, AMARE); settings: post-emergence, read-out: Effect (% visual injury) Obs
Description: as §1, §2, §3

[5] = tested on: wild oat (Avena fatua, AVEFA); settings: post-emergence, read-out: Effect (% visual injury) Obs
Description: as §1, §2, §3

[6] = tested on: barnyardgrass (Echinochloa crus-galli, ECHCG); settings: post-emergence, read-out: Effect (% visual injury) Obs
Description: as §1, §2, §3

[7] = tested on: wild buckwheat (Polygonum convolvulus, POLCO)
Description: as §1, §2, §3

[8] = tested on: winter wheat (Triticum aestivum, TRZAW); settings: post-emergence, read-out: Effect (% visual injury) Obs
Description: as §1, §2, §3

[9] = tested on: giant foxtail (Setaria faberi, SETFA); settings: post-emergence, read-out: Effect (% visual injury) Obs
Description: as §1, §2, §3

[10] = tested on: velvetleaf (Abutilon theophrasti, ABUTH); settings: post-emergence, read-out: Effect (% visual injury) Obs
Description: as §1, §2, §3

[11] = tested on: sunflower (Helianthus annuus, HELAN); settings: post-emergence, read-out: Effect (% visual injury) Obs
Description: as §1, §2, §3

[12] = tested on: blackgrass (Alopecurus myosuroides, ALOMY); settings: post-emergence, read-out: Effect (% visual injury) Obs
Description: as §1, §2, §3

maize (Zea mays, ZEAMX) = settings: post-emergence, read-out: Effect (% visual injury) Obs
Description: as §1, §2, §3

[13] = tested on: large crabgrass (Digitaria sanguinalis, DIGSA); settings: post-emergence, read-out: Effect (% visual injury) Obs
Description: as §1, §2, §3

[14] = tested on: rice (Oryza sativa, ORYSA); settings: post-emergence, read-out: Effect (% visual injury) Obs
Description: as §1, §2, §3

[15] = tested on: common lambsquarters (Chenopodium album L., CHEAL); settings: post-emergence, read-out: Effect (% visual injury) Obs
Description: as §1, §2, §3

[16] = tested on: poinsettia (Euphorbia heterophylla, EPHHL)
Description: (§4) Seeds of the desired test plant species were planted in Sun Gro MetroMix® 306 planting mixture, which typically has a pH of 6.0 to 6.8 and an organic matter content of about 30 percent, in plastic pots with a surface area of 103.2 square centimeters (cm^2). When required to ensure good germination and healthy plants, a fungicide treatment and/or other chemical or physical treatment was applied. The plants were grown for 7-36 days (d) in a greenhouse with an approximate 14-hour (h) photoperiod which was maintained at about 23° C. during the day and 22° C. during the night. Nutrients and water were added on a regular basis and supplemental lighting was provided with overhead metal halide 1000-Watt lamps as necessary. The plants were employed for testing when they reached the second or third true leaf stage.
(§5) An emulsifiable concentrate (EC) formulation containing Compound 1 at 100 gai/L was prepared by combining Compound 1 with 1-butyl-2-pyrrolidinone (Tamisolve NxG; 360.5 g/L), benzyl acetate (544.6 g/L) and Agnique MBL 520L surfactant (52.9 g/L). […] The concentrated stock solution was diluted with an aqueous mixture of 1.5% v/v of Agri-dex crop oil concentrate to provide the appropriate application rates. Compound requirements are based upon a 12 milliliter (mL) application volume at a rate of 187 liters per hectare (L/ha). Spray solutions of the experimental compound mixtures were prepared by adding the stock solutions to the appropriate amount of dilution solution to form a 12 mL spray solution in two-way combinations. Formulated compounds were applied to the plant material with an overhead Mandel track sprayer equipped with 8002E nozzles calibrated to deliver 187 L/ha over an application area of 0.503 square meters (m^2) at a spray height of 18 inches (43 centimeters (cm)) above average plant canopy. Control plants were sprayed in the same manner with the solvent blank. Application rates for component (a) are in g ae/ha, and application rates for component (b) are in g ai/ha.
as §3

[17] = tested on: kochia (Kochia scoparia, KCHSC)
Description: as §4, §5, §3

[18] = tested on: chickweed (Stellaria media, STEME); settings: post-emergence, read-out: Effect (% visual injury) Obs
Description: as §4, §5, §3

[19] = tested on: winter rape (Brassica napus, BRSNW); settings: post-emergence, read-out: Effect (% visual injury) Obs
Description: as §4, §5, §3

[20] = tested on: ivyleaf morningglory (Ipomoea hederacea, IPOHE)
Description: as §4, §5, §3

[21] = Clodinafop-propargyl 30 g ai/ha

## CCCC(=NOCC)C1=C(O)CC(CC(C)SCC)CC1=O (racemic) [Sethoxydim, (±)-(EZ)-2-(1-ethoxyiminobutyl)-5-[2-(ethylthio)propyl]-3-hydroxycyclohex-2-enone]
[1]
  pest or weed control at 140 g/ha: 5%
[2]
  plant injury at 140 g/ha: 0%
[3]
  plant injury at 140 g/ha: 100%
[4]
  pest or weed control at 140 g/ha: 0%
[5]
  pest or weed control at 140 g/ha: 85%
[6]
  pest or weed control at 140 g/ha: 50%
[7]; Fallopia convolvulus, post-emergence, read-out: Effect (% visual injury) Obs
  pest or weed control at 140 g/ha: 0%
[8]
  plant injury at 140 g/ha: 60%
[9]
  pest or weed control at 140 g/ha: 85%
[10]
  pest or weed control at 140 g/ha: 0%
[11]
  plant injury at 140 g/ha: 0%
[12]
  pest or weed control at 140 g/ha: 95%
Maize (Zea mays, ZEAMX)
  plant injury at 140 g/ha: 75%
[13]
  pest or weed control at 140 g/ha: 60%
[14]
  plant injury at 140 g/ha: 75%
[15]
  pest or weed control at 140 g/ha: 5%
[16]; Sethoxydim 140 g ai/ha
  Effect (% visual injury) Obs: 10%
[17]; Sethoxydim 140 g ai/ha
  Effect (% visual injury) Obs: 0%
[18]
  pest or weed control at 140 g/ha: 10%
[19]
  plant injury at 140 g/ha: 0%

## C#CCOC(=O)[C@@H](C)Oc1ccc(Oc2ncc(Cl)cc2F)cc1 [Clodinafop-propargyl, prop-2-ynyl (R)-2-[4-(5-chloro-3-fluoro-2-pyridyloxy)phenoxy]propionate]
[2]; [21]
  plant injury: 0%
[3]; [21]
  plant injury: 100%
[4]; [21]
  pest or weed control: 0%
[5]; [21]
  pest or weed control: 90%
[6]; [21]
  pest or weed control: 100%
[7]; Fallopia convolvulus, post-emergence, Clodinafop-propargyl 30 g ai/ha, read-out: Effect (% visual injury) Obs
  pest or weed control: 0%
[8]; [21]
  plant injury: 0%
[9]; [21]
  pest or weed control: 98%
[10]; [21]
  pest or weed control: 0%
[11]; [21]
  plant injury: 0%
[12]; [21]
  pest or weed control: 10%
Maize (Zea mays, ZEAMX); [21]
  plant injury: 100%
[13]; [21]
  pest or weed control: 95%
[14]; [21]
  plant injury: 90%
[20]; [21]
  Effect (% visual injury) Obs: 0%
[18]; [21]
  pest or weed control at 30 g/ha: 0%
[19]; [21]
  plant injury at 30 g/ha: 0%

## Nc1c(F)c(-c2ccc3cc[nH]c3c2F)nc(C(=O)O)c1Cl [Compound 1]
[1]; Compound 1 10 g ai/ha
  pest or weed control at 10 g/ha: 10%
[2]; Compound 1 5 g ai/ha
  plant injury at 5 g/ha: 100%
[2]; Compound 1 10 g ai/ha
  plant injury at 10 g/ha: 100%
[3]; Compound 1 10 g ai/ha
  plant injury at 10 g/ha: 50%
[4]; Compound 1 10 g ai/ha
  pest or weed control at 10 g/ha: 97%
[5]; Compound 1 5 g ai/ha
  pest or weed control at 5 g/ha: 0%
[5]; Compound 1 10 g ai/ha
  pest or weed control at 10 g/ha: 0%
[6]; Compound 1 10 g ai/ha
  pest or weed control at 10 g/ha: 60%
[7]; Compound 1 10 g ai/ha
  Effect (% visual injury) Obs: 75%
[7]; Fallopia convolvulus, post-emergence, Compound 1 10 g ai/ha, read-out: Effect (% visual injury) Obs
  pest or weed control at 10 g/ha: 75%
[8]; Compound 1 5 g ai/ha
  plant injury at 5 g/ha: 0%
[8]; Compound 1 10 g ai/ha
  plant injury at 10 g/ha: 0%
[9]; Compound 1 10 g ai/ha
  pest or weed control at 10 g/ha: 50%
[10]; Compound 1 5 g ai/ha
  pest or weed control at 5 g/ha: 50%
[10]; Compound 1 10 g ai/ha
  pest or weed control at 10 g/ha: 60%
[11]; Compound 1 5 g ai/ha
  plant injury at 5 g/ha: 95%
[11]; Compound 1 10 g ai/ha
  plant injury at 10 g/ha: 90%
[12]; Compound 1 5 g ai/ha
  pest or weed control at 5 g/ha: 0%
[12]; Compound 1 10 g ai/ha
  pest or weed control at 10 g/ha: 0%
Maize (Zea mays, ZEAMX); Compound 1 5 g ai/ha
  plant injury at 5 g/ha: 0%
Maize (Zea mays, ZEAMX); Compound 1 10 g ai/ha
  plant injury at 10 g/ha: 0%
[13]; Compound 1 5 g ai/ha
  pest or weed control at 5 g/ha: 0%
[13]; Compound 1 10 g ai/ha
  pest or weed control at 10 g/ha: 10%
[14]; Compound 1 5 g ai/ha
  plant injury at 5 g/ha: 0%
[14]; Compound 1 10 g ai/ha
  plant injury at 10 g/ha: 10%
[15]; Compound 1 5 g ai/ha
  pest or weed control at 5 g/ha: 100%
[15]; Compound 1 10 g ai/ha
  pest or weed control at 10 g/ha: 100%
[20]; Compound 1 5 g ai/ha
  Effect (% visual injury) Obs: 10%
[16]; Compound 1 5 g ai/ha
  Effect (% visual injury) Obs: 100% and 97%
[16]; Compound 1 10 g ai/ha
  Effect (% visual injury) Obs: 97%
[17]; Compound 1 5 g ai/ha
  Effect (% visual injury) Obs: 60%
[17]; Compound 1 10 g ai/ha
  Effect (% visual injury) Obs: 60%
[18]; Compound 1 10 g ai/ha
  pest or weed control at 10 g/ha: 70%
[19]; Compound 1 5 g ai/ha
  plant injury at 5 g/ha: 60%
[19]; Compound 1 10 g ai/ha
  plant injury at 10 g/ha: 45%
